# Data reported in PubChem BioAssay AID2060338 (Molecular Pharmacology Branch, DTP, NCI, 2025).
# Test system: 556581-035-R-J1-PDC spheroids with HUVEC/MSC, viability
# Test: Anticancer human tumor 556581-035-R-J1-PDC patient-derived ovarian carcinoma cell line growth inhibition [IpAb]
# Conditions: for IC50: curve of first compound; for viability, T/C: stronger effect = lower value
# How it was run: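 Multi-cell spheroids of 60% tumour cells, 25% HUVEC and 15% MSC in ultra-low-attachment U-bottom wells, treated with agents combined with ipatasertib or abemaciclib. Half-log ranges top out near clinical Cmax, or 10 microM when Cmax is unknown.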
# [1] = second compound 0.1 µM, first compound 0.0316 µM
# [2] = second compound 0.1 µM, first compound 0.1 µM
# [3] = second compound 0.316 µM, first compound 0.0316 µM
# [4] = second compound 0.316 µM, first compound 0.1 µM
# [5] = second compound 1 µM, first compound 0.0316 µM
# [6] = second compound 1 µM, first compound 0.1 µM
# 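Also: spheroids exposed to compounds for 7 days before readout.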
compound,measurement,setting,value
CC(C)n1nc(-c2ccc3oc(N)nc3c2)c2c(N)ncnc21 + CC(C)NCC(C(=O)N1CCN(c2ncnc3c2C(C)CC3O)CC1)c1ccc(Cl)cc1,IC50,second compound 0.1 µM,0.00646 µM
same,IC50,second compound 0.316 µM,0.006 µM
same,IC50,second compound 1 µM,0.00358 µM
same,IC50,second compound 3.16 µM,0.00147 µM
same,IC50,second compound 10 µM,< 0.000316 µM
same,"viability, T/C","second compound 0.1 µM, first compound 0.000316 µM",87.8%
same,"viability, T/C","second compound 0.1 µM, first compound 0.001 µM",68.8%
same,"viability, T/C","second compound 0.1 µM, first compound 0.00316 µM",60.1%
same,"viability, T/C","second compound 0.1 µM, first compound 0.01 µM",47.6%
same,"viability, T/C",[1],29.3%
same,"viability, T/C",[2],24.7%
same,"viability, T/C","second compound 0.316 µM, first compound 0.000316 µM",69.5%
same,"viability, T/C","second compound 0.316 µM, first compound 0.001 µM",65.1%
same,"viability, T/C","second compound 0.316 µM, first compound 0.00316 µM",58%
same,"viability, T/C","second compound 0.316 µM, first compound 0.01 µM",40.9%
same,"viability, T/C",[3],36.6%
same,"viability, T/C",[4],21.3%
same,"viability, T/C","second compound 1 µM, first compound 0.000316 µM",58.6%
same,"viability, T/C","second compound 1 µM, first compound 0.001 µM",67.1%
same,"viability, T/C","second compound 1 µM, first compound 0.00316 µM",50.4%
same,"viability, T/C","second compound 1 µM, first compound 0.01 µM",34%
same,"viability, T/C",[5],28.6%
same,"viability, T/C",[6],25.2%
same,"viability, T/C","second compound 3.16 µM, first compound 0.000316 µM",63.4%
same,"viability, T/C","second compound 3.16 µM, first compound 0.001 µM",52.4%
same,"viability, T/C","second compound 3.16 µM, first compound 0.00316 µM",44.1%
same,"viability, T/C","second compound 3.16 µM, first compound 0.01 µM",34.1%
same,"viability, T/C","second compound 3.16 µM, first compound 0.0316 µM",27.5%
same,"viability, T/C","second compound 3.16 µM, first compound 0.1 µM",18.5%
same,"viability, T/C","second compound 10 µM, first compound 0.000316 µM",48%
same,"viability, T/C","second compound 10 µM, first compound 0.001 µM",44%
same,"viability, T/C","second compound 10 µM, first compound 0.00316 µM",36.8%
same,"viability, T/C","second compound 10 µM, first compound 0.01 µM",25.7%
same,"viability, T/C","second compound 10 µM, first compound 0.0316 µM",17.1%
same,"viability, T/C","second compound 10 µM, first compound 0.1 µM",16.4%
Cn1ncc(Cl)c1-c1cc(C(=O)NC(CN)Cc2cccc(F)c2)sc1Cl (stereo not given) + CCN1CCN(Cc2ccc(Nc3ncc(F)c(-c4cc(F)c5nc(C)n(C(C)C)c5c4)n3)nc2)CC1,IC50,second compound 0.01 µM,1.61 µM
same,IC50,second compound 0.0316 µM,1.8 µM
same,IC50,second compound 0.1 µM,1.54 µM
same,IC50,second compound 0.316 µM,1.17 µM
same,IC50,second compound 1 µM,0.402 µM
same,"viability, T/C","second compound 0.01 µM, first compound 0.0316 µM",96%
same,"viability, T/C","second compound 0.01 µM, first compound 0.1 µM",81.6%
same,"viability, T/C","second compound 0.01 µM, first compound 0.316 µM",64.2%
same,"viability, T/C","second compound 0.01 µM, first compound 1 µM",60.7%
same,"viability, T/C","second compound 0.01 µM, first compound 3.16 µM",44.3%
same,"viability, T/C","second compound 0.01 µM, first compound 10 µM",0.26%
same,"viability, T/C","second compound 0.0316 µM, first compound 0.0316 µM",85.4%
same,"viability, T/C","second compound 0.0316 µM, first compound 0.1 µM",78.5%
same,"viability, T/C","second compound 0.0316 µM, first compound 0.316 µM",79.1%
same,"viability, T/C","second compound 0.0316 µM, first compound 1 µM",56.9%
same,"viability, T/C","second compound 0.0316 µM, first compound 3.16 µM",41.1%
same,"viability, T/C","second compound 0.0316 µM, first compound 10 µM",0.2%
same,"viability, T/C",[1],91.4%
same,"viability, T/C",[2],82.2%
same,"viability, T/C","second compound 0.1 µM, first compound 0.316 µM",63.9%
same,"viability, T/C","second compound 0.1 µM, first compound 1 µM",54.2%
same,"viability, T/C","second compound 0.1 µM, first compound 3.16 µM",47.1%
same,"viability, T/C","second compound 0.1 µM, first compound 10 µM",0.18%
same,"viability, T/C",[3],88.5%
same,"viability, T/C",[4],92.3%
same,"viability, T/C","second compound 0.316 µM, first compound 0.316 µM",54.8%
same,"viability, T/C","second compound 0.316 µM, first compound 1 µM",60.6%
same,"viability, T/C","second compound 0.316 µM, first compound 3.16 µM",31.5%
same,"viability, T/C","second compound 0.316 µM, first compound 10 µM",12.4%
same,"viability, T/C",[5],56.7%
same,"viability, T/C",[6],54.3%
same,"viability, T/C","second compound 1 µM, first compound 0.316 µM",50.5%
same,"viability, T/C","second compound 1 µM, first compound 1 µM",44.7%
same,"viability, T/C","second compound 1 µM, first compound 3.16 µM",25.6%
same,"viability, T/C","second compound 1 µM, first compound 10 µM",0.54%
